# Experimental data: US20220184091A1, “Methods of Treating Cancer with Chk1 Inhibitors” (Sierra Oncology, Inc., priority 2019, published 2022)
# How the values were obtained:
# H209 = assay: Survival of cancer cells after gemcitabine, H209; type: cell-based; details: H209 SCLC in vitro model
# Experimental: (§1) SCLC cell lines were incubated with dimethyl sulfoxide (vehicle control), SRA737 or Gemcitabine for 96 hours at nine distinct concentrations, with the maximum dose being 10 μM. A CellTiter-Glo luminescent cell viability assay (Promega) was performed after 96 hours of treatment as per the manufacturer's specifications. IC50 values were estimated using Drexplorer, as previously described (Tong P, Coombes K R, Johnson F M, Byers L A, Diao L, Liu D D, Lee J J, Heymach J V, Wang J. drexplorer: A tool to explore dose-response relationships and drug-drug interactions. Bioinformatics. 2015 May 15; 31(10):1692-4.)
# H524 = assay: Survival of cancer cells after gemcitabine, H524; type: cell-based; details: H524 SCLC in vitro model
# Experimental: as §1
# RPP = assay: Survival of cancer cells after gemcitabine, RPP; type: cell-based, murine; details: RPP SCLC in vitro model
# Experimental: Data presented as mean±SD and p values by t-test ***p<0.001.
# as §1
# RPP tumor = assay: Flank RPP (SCLC) tumor growth in B6129F1 immunocompetent mice; type: in vivo, mouse; details: anti-PD-L1 300 μg 1-day-on/6-days-off; LDG 40 mg/kg 1-day-on/6-days-off; SRA737 100 mg/kg 2-day-on/5-days-off
# Experimental: Tumors were evaluated twice weekly for the duration of the study. Tumor volumes were measured on all mice three times per week and calculated (width^2×length×0.4) using manual calipers. Once the average tumor size was in the range of 120-150 mm^3, mice were randomized into dosing groups using stratified sampling by assigning three animals per group for short-term reverse-phase protein array analysis and long-term treatment. Dosing schedules and duration varied depending on the study. Mice were weighed three times per week for the duration of the study, and a decrease in body weight >15% was considered indicative of a toxic dose. The Student t-test was used to determine statistical significance between compound- and vehicle-treated groups.
# […] 15A.
# IFNβ, CXCL10 and CCL5 = assay: qPCR of IFNβ, CXCL10 and CCL5 in resected RPP tumors; type: in vivo, mouse; details: RPP tumors resected at Day 21; SRA737 2-days-on/5-days-off
# Experimental: Data presented as mean±SD and p values by t-test * p<0.05, **p<0.01, ***p<0.001.
# Real-time PCR was done using SYBR Select Master Mix (Life Technologies, cat #4472908) according to the manufacturer's protocol. Primers were purchased from Sigma Aldrich, Inc. Triplicate PCR reactions were run on ABI (7500 Fast Real Time PCR System). The comparative Ct method using the average 2ΔΔCT value for each set of triplicates was used, and the average of the biological replicates was calculated. Negative controls were included for every primer set, and GAPDH was used as the […].
compound,measurement,setting,value
Nc1ccn([C@@H]2O[C@H](CO)[C@@H](O)C2(F)F)c(=O)n1 [gemcitabine],response of cancer cells to gemcitabine alone,H209,resistant
same,response of cancer cells to gemcitabine alone,H524,resistant
same,response of cancer cells to gemcitabine alone,RPP,resistant
same,anti-tumor effect (tumor volume),RPP tumor,no significant anti-tumor effect
same,"expression of IFNβ, CCL5 and CXCL10","IFNβ, CXCL10 and CCL5",Neither LDG nor SRA737 monotherapy (2-days-on/5-days-off) showed any significant effect
